Each block holds one substance with its values, some of them ahead of it.
Experiments:
[1] = system: blood glucose; assay: In vivo efficacy of insulin formulations (blood glucose after subcutaneous injection); parameters: species or system mice; conditions: for T-Test probability level of the difference against the Tris buffer, in vivo efficiency: mice
Description: The in vivo efficacy of insulin formulations was studied in female mice CD-1, 7-8 weeks old, 0.3 IU of protein dose (same activity) was injected in mice subcutaneously. Animals were divided into seven groups of four. insulin formulations were given to each animal of each group in the following manner; insulin (0.3 IU/mouse), Lantus (Aventis) insulin-PSA conjugate (14 KDa), PBS, one drop of blood was taken from each animal and was measured blood glucose by ACCU-CHEK Active (Roche Diagnostics).

[2] = Isoelectric focusing (IEF) gel; type: physicochemical; conditions: IEF gel pH 3-10
Description: Novex® IEF gel was used to determine differences in insulin and CAO-insulin conjugate isoelectric points. Samples was dissolved to a concentration of 0.5 mg/ml. 5 ul sample was diluted with 5 ul Novex IEF Sample Buffer pH 3-10 and then loaded the protein sample on the gel.

[3] = system: liver enzymes; conditions: cited from earlier work
[4] = system: blood sugar levels; conditions: rabbits, calculated on a molar basis; cited from earlier work
[5] = cyanuric chloride activated PEG (2000 Da) conjugates; cited from earlier work
[6] = Colominic acid (CAO) stability at different pH; type: physicochemical
Description: Colominic acid samples (CA and CAO) were dissolved in NaNO3 (0.2M), CH3CN (10%; 5 mg/ml) and were chromatographed on over 2× GMPWXL columns with detection by refractive index (GPC system: VE1121 GPC solvent pump, VE3580 RI detector and collation with Trisec 3 software (Viscotek Europe Ltd). Samples (5 mg/ml) were filtered over 0.45 μm nylon membrane and run at […] with 0.2M NaNO3 and CH3CN (10%) as the mobile phase.
The rules for chemistry of the PEGylation cannot be applied to polysialylation as such because of the difference in the physiochemical properties of these molecules. PSA is an acid labile polymer and is stable for weeks around neutral pH (FIG. 3). […] Polysialic acid is highly hydrophilic whereas PEG is an ampiphilic molecule in nature. When the polysialylation is carried out using conditions used for PEGylation, aggregation and precipitation of the proteins is seen in many cases.

Substance: 32 kDa CAO-insulin: conjugate of insulin with 32 kDa oxidised colominic acid
- T-Test probability level of the difference against the Tris buffer, in vivo efficiency ([1]; time 32.0 minutes): *** (*** P < 0.001)
- T-Test probability level of the difference against the Tris buffer, in vivo efficiency ([1]; time 64.5 minutes): *** (*** P < 0.001)
- T-Test probability level of the difference against the Tris buffer, in vivo efficiency ([1]; time 99.4 minutes): *** (*** P < 0.001)
- T-Test probability level of the difference against the Tris buffer, in vivo efficiency ([1]; time 1354.9 minutes): * (* P < 0.05)

Substance: 27 kDa CAO-insulin: conjugate of insulin with 27 kDa oxidised colominic acid
- T-Test probability level of the difference against the Tris buffer, in vivo efficiency ([1]; time 32.0 minutes): ** (** P < 0.01)
- T-Test probability level of the difference against the Tris buffer, in vivo efficiency ([1]; time 64.5 minutes): *** (*** P < 0.001)
- T-Test probability level of the difference against the Tris buffer, in vivo efficiency ([1]; time 99.4 minutes): ** (** P < 0.01)
- T-Test probability level of the difference against the Tris buffer, in vivo efficiency ([1]; time 230.2 minutes): ** (** P < 0.01)
- T-Test probability level of the difference against the Tris buffer, in vivo efficiency ([1]; time 1354.9 minutes): ** (** P < 0.01)
- isoelectric point (pI) [2]: no fixed isoelectric point

Substance: 15 KDa CAO-insulin (Sigma): conjugate of insulin with 15 kDa oxidised colominic acid
- pH effect (of polysialylation) on in vivo efficiency ([1]; conjugation pH 6.0 versus 7.4): pH 6.0 is better than 7.4
- probability level of the difference against the PBS buffer ([1]; time 30 (unit not given)): ** (**P < 0.01)
- probability level of the difference against the PBS buffer ([1]; time 60 (unit not given)): *** (***P < 0.001)
- probability level of the difference against the PBS buffer ([1]; time 90 (unit not given)): *** (***P < 0.001)
- probability level of the difference against the PBS buffer ([1]; time 120 (unit not given)): ** (**P < 0.01)
- probability level of the difference against the PBS buffer ([1]; time 150 (unit not given)): * (*P < 0.05)

Substance: insulin [reference compound]
- T-Test probability level of the difference against the Tris buffer, in vivo efficiency ([1]; time 32.0 minutes): *** (*** P < 0.001)
- T-Test probability level of the difference against the Tris buffer, in vivo efficiency ([1]; time 64.5 minutes): *** (*** P < 0.001)
- T-Test probability level of the difference against the Tris buffer, in vivo efficiency ([1]; time 99.4 minutes): *** (*** P < 0.001)

Substance: PEG(1500)-B1-insulin: Geiger et al./Ehrat et al. PEG-insulin adduct modified at residue PheB1
- stability to liver enzymes versus native insulin [3]: far more stable

Substance: 21 kDa CAO-insulin: conjugate of insulin with 21 kDa oxidised colominic acid
- T-Test probability level of the difference against the Tris buffer, in vivo efficiency ([1]; time 64.5 minutes): *** (*** P < 0.001)
- T-Test probability level of the difference against the Tris buffer, in vivo efficiency ([1]; time 99.4 minutes): *** (*** P < 0.001)
- T-Test probability level of the difference against the Tris buffer, in vivo efficiency ([1]; time 230.2 minutes): * (* P < 0.05)

Substance: 13 kDa CAO-insulin: N-terminal conjugate of insulin with 13 kDa oxidised colominic acid (polysialic acid)
- T-Test probability level of the difference against the Tris buffer, in vivo efficiency ([1]; time 32.0 minutes): ** (** P < 0.01)
- T-Test probability level of the difference against the Tris buffer, in vivo efficiency ([1]; time 64.5 minutes): *** (*** P < 0.001)
- T-Test probability level of the difference against the Tris buffer, in vivo efficiency ([1]; time 99.4 minutes): *** (*** P < 0.001)
- isoelectric point (pI) [2]: no fixed isoelectric point

Substance: mPEG(1500)-B1-insulin: Obermeier et al. site-specific PEG-insulin conjugate modified at residue PheB1
- insulin effect on reduction of blood sugar levels [4]: 100%

Substance: 21.5 kd CAO-insulin: conjugate of insulin with 21.5 kDa oxidised colominic acid (FIG. 9)
- effect on decreasing blood glucose in mice ([1]; among conjugates of FIG. 9 (10, 15, 21.5 kDa), PBS control): most significant effect on the decreasing blood glucose in mice

Substance: PEG-insulin conjugates: Davis et al. conjugates of insulin with cyanuric chloride activated PEG (2000 Da)
- activity (partially active) [5]: about 50%

- slow degradation, % of initial MW ([6]; pH 4.0, after 48 hours): 70 % of initial MW
- slow degradation, % of initial MW ([6]; pH 5.0, after 48 hours): 92 % of initial MW
- stability of CAO ([6]; pH 6.0): stable for 8 days
- stability of CAO ([6]; pH 7.4): stable for 8 days
Substance: oxidised colominic acid [CAO]
